Assay results taken from US20250325562A1, “Intravenous Ganaxolone Formulations and Methods of Use in Treating Status Epilepticus and Other Seizure Disorders” (MARINUS PHARMACEUTICALS, INC., priority 2015, published 2025).
Like-named read-outs stand apart in the source and are kept apart here.

Assays:
[1] = in vivo; cited from earlier work
[2] = Phase solubility of ganaxolone in aqueous CAPTISOL solutions, HPLC; type: physicochemical; details: for Ganaxolone conc. by HPLC: 42 hours equilibrium
Description: Ganaxolone solubility in aqueous CAPTISOL solution was first determined by constructing a phase solubility diagram. Excess ganaxolone was shaken in aqueous CAPTISOL solutions of known concentrations for 42 hours to reach equilibrium. The ganaxolone solution was filtered into HPLC vials through 0.45 μm syringe filters. The filtrates were assayed for ganaxolone concentration by HPLC. Moles of ganaxolone in solution against moles of CAPTISOL added were plotted.

[3] = Ganaxolone concentration reached in 30% Captisol solutions (with additives or dry mixing), HPLC; type: physicochemical
Description: 500 μl of 10% aqueous Polysorbate 80 solution in a 20 ml scintillation vial were combined with powdered ganaxolone (50 mg). The mixture was stirred to wet the ganaxolone. Solid Captisol (3.2 g), sufficient to form a 30% Captisol solution, was then added to the vial and the vial contents were mixed. Deionized water (8.0 g) was then added and the mixture was vigorously stirred at room temperature overnight to obtain a hazy solution. An aliquot was filtered through 0.2 μm syringe filter and ganaxolone concentration was assayed by HPLC to be 4.28 mg/ml.
Ganaxolone was vigorously stirred in 30% Captisol in the presence of 10% v/v ethanol overnight to obtain a 3.16 mg/ml ganaxolone solution. • (b) Ganaxolone-30% Captisol solution containing glycerin
Ganaxolone was vigorously stirred in 30% Captisol in the presence of 10% v/v glycerin overnight to obtain a 3.45 mg/ml ganaxolone solution. • (c) Ganaxolone-30% Captisol solution containing propylene glycol
Ganaxolone was vigorously stirred in 30% Captisol in the presence of 10% v/v propylene glycol overnight to obtain a 2.53 mg/ml ganaxolone solution.
Powdered ganaxolone (125 mg) was charged into 100 ml beaker. Captisol powder (7.9 g) was then added to the beaker. The mixture was mixed by stirring with a magnetic stir bar for 5 min. Deionized water (20.1 g) was weighed into a plastic cup. About half of the water was added into the beaker and the contents were vigorously stirred for 30 minutes to obtain a homogeneous mixture. The remaining water was added and the beaker was covered with paraffin film.

[4] = cited from earlier work

## CC(=O)[C@H]1CC[C@H]2[C@@H]3CC[C@H]4C[C@H](O)CC[C@]4(C)[C@H]3CC[C@]12C [Allopregnanolone]
[1]
  half-life: very short

## CC(=O)[C@H]1CC[C@H]2[C@@H]3CC[C@H]4C[C@](C)(O)CC[C@]4(C)[C@H]3CC[C@]12C [Ganaxolone, 3α-hydroxy, 3β-methyl-5α-pregnan-20-one]
[2]; CAPTISOL 0 mg/mL
  Ganaxolone conc.: 0 mM
  Ganaxolone conc. by HPLC: Not detectable
[2]; CAPTISOL 25 mg/mL (0.0116 M)
  Ganaxolone conc.: 1.3 mM
  Ganaxolone conc. by HPLC: 0.43 mg/mL
[2]; CAPTISOL 50 mg/mL (0.0231 M)
  Ganaxolone conc.: 2.7 mM
  Ganaxolone conc. by HPLC: 0.88 mg/mL
[2]; CAPTISOL 100 mg/mL (0.0462 M)
  Ganaxolone conc.: 5.6 mM
  Ganaxolone conc. by HPLC: 1.86 mg/mL
[2]; CAPTISOL 200 mg/mL (0.0925 M)
  Ganaxolone conc.: 10.9 mM
  Ganaxolone conc. by HPLC: 3.63 mg/mL
[2]; CAPTISOL 400 mg/mL (0.185 M)
  Ganaxolone conc.: 23.1 mM
  Ganaxolone conc. by HPLC: 7.68 mg/mL
[3]; 30% Captisol with Polysorbate 80, stirred overnight at room temperature, 0.2 μm filtered
  ganaxolone concentration by HPLC: 4.28 mg/mL
[3]; 30% Captisol, 10% v/v ethanol, stirred overnight
  ganaxolone concentration of solution: 3.16 mg/mL
[3]; 30% Captisol, 10% v/v glycerin, stirred overnight
  ganaxolone concentration of solution: 3.45 mg/mL
[3]; 30% Captisol, 10% v/v propylene glycol, stirred overnight
  ganaxolone concentration of solution: 2.53 mg/mL
[3]; 30% Captisol, dry mixing, after 90 hours of stirring
  ganaxolone concentration after prolonged stirring: unchanged
[3]; 30% Captisol, prior dry mixing of ganaxolone and Captisol, stirred overnight at room temperature
  ganaxolone concentration of solution: 4.61 mg/mL
[4]; human plasma following oral administration
  half-life: approximately 20 hours
[4]; therapeutic blood levels are reached quickly
  Tmax: short
